Assay results as given in publication PMC5679629, “Flavin-containing monooxygenase 3 (FMO3) role in busulphan metabolic pathway” (PLoS ONE, 2017).

Experiments:
[1] = set-up: method as in PMID 2886318; details: rats, cited from earlier work
[2] = in vivo; details: male, C57BL/6N, mouse, plasma, ip, 25 mg/kg
Description: (§4) Male C57BL/6N mice (6–8 weeks old) were purchased from Charles River (Cologne, Germany). The mice were allowed to acclimatize to the surroundings for 2 weeks with a 12h dark/12h light cycle and randomized for treatment. Standard laboratory chow and water ad libitum was introduced.
(§5) To study Bu and THT kinetics, Bu (Sigma-Aldrich, Steinheim, Germany) was administered i.p. (25mg/kg or 100μmol/kg) as a 2mM solution in DMSO (Sigma-Aldrich, Stockholm, Sweden) [21]. THT was also prepared as a 2mM solution in DMSO and the dose given was equimolar to the Bu treatment (i.e. 100μmol/kg or 8.8 mg/kg). Upon injection, samples were diluted with physiological NaCl solution to a final DMSO concentration of 10% in the dosing solution. At the appropriate time points (10min, 30min, 1h, 2h, 4h, 6h and 8h), mice (three mice at each time point) were anesthetized using 2% isoflurane and the blood samples were collected by heart puncture. Mice were euthanized by cervical dislocation. Plasma was separated and stored at -20°C.
(§6) PTU (3mg/kg) was dissolved in DMSO and diluted with physiological NaCl solution and then injected into the mice once daily followed by Bu or THT injections on the 4th day. The mice were euthanized and plasma samples prepared as in the previous experiment.
(§7) To detect the effect of high THT concentrations on Bu metabolism, a third group of mice was injected with both Bu (100μmol/kg) and a high dose of THT (17.6mg/kg or 200μmol/kg) and samples prepared as described previously. All experiments including negative controls (mice injected with 10% DMSO in NaCl solution) and mice injected with PTU alone were performed in triplicates.
(§8) To quantify Bu, samples were extracted according to the method reported previously by Hassan et al. [24]. Briefly, 500 μL of plasma were diluted with 500 μL of water. Fifty microliters of the internal standard (1,5-bis(methanesulfonoxy)pentane; 38.5 μM) were added, followed by the addition of 1 mL of sodium iodide (8M, Merck, Darmstadt, Germany) and 400μL of n-heptane (Merck, Darmstadt, Germany). The tubes were placed under magnetic stirring in a water bath (70°C) for 45 min. During the reaction, busulphan and 1,5-bis(methanesulfonoxy)pentane were converted to 1,4-diiodobutane and 1,5-diiodopentane respectively and subsequently extracted with n-heptane [25]. The conversion of busulphan and 1,5-bis(methanesulfonoxy)pentane to 1,4-diiodobutane and 1,5-diiodopentane was over 90% [24]. The organic phase was analyzed by GC-MS [18]. THT was quantified as described previously and the method was validated for use with mouse plasma before measuring both Bu and THT [19, 20].
(§9) Kinetic parameters from in vivo studies were estimated using WinNonLin software (standard edition, version 2.0), while Microsoft Excel and SigmaPlot software (version 12.5, Systat software, Inc.) were utilized for in vitro kinetics.

[3] = system: FMO3 mRNA; test: Gene expression in patients conditioned with busulphan (gene array, qRT-PCR); assay type: in vivo, human; details: oral Bu 2mg/kg b.i.d. for 4 days, normalized to GAPDH
Description: (§1) FMO3 mRNA expression was studied in twelve patients undergoing HSCT at the Center for Allogeneic Stem Cell Transplantation (CAST), Karolinska University Hospital-Huddinge, Sweden. The study was approved by the ethical committee of Karolinska Institutet (616/03) in accordance with the Helsinki Declaration of 1975 and with informed consent from each patient or their guardian. All patients were treated with oral Bu, administered at a dose of 2mg/kg (8μmol/kg) b.i.d. for 4 days followed by an i.v. infusion of cyclophosphamide (Cy) 60mg/kg/day (230μmol/kg/day) once daily for 2 days before the stem cell infusion.
(§2) Blood samples for mRNA quantification were collected in PAXgene^TM blood RNA tubes (BD, Stockholm, Sweden) prior to the start of Bu treatment and after the last Bu dose.
(§3) RNA was extracted from the mononuclear cells using QuickPreps^TM Total RNA Extraction Kit (GE Life Sciences, Uppsala, Sweden). RNA (1μg) was reverse transcribed to complementary DNA (cDNA) using the TaqMan^TM Kit (Applied Biosystems, Roche, NJ, USA).
Purified mRNA was subjected to analysis of global gene expression by using NimbleGen microarrays (Roche Diagnostics Scandinavia, Bromma, Sweden). Data were analyzed by Genespring GX (Agilent, CA, USA). Quantile normalization was used on the probe expression data generated using the Robust Multichip Average algorithm. […]

[4] = Busulphan and THT plasma kinetics in a patient treated concomitantly with voriconazole; assay type: in vivo, human; details: Bu 2mg/kg b.i.d. with concomitant voriconazole
Description: In order to confirm the contribution of FMO3 to human Bu kinetics, blood samples were collected (routinely) from a patient who underwent stem cell transplantation and was conditioned according to the hospital transplantation protocol i.e. high dose of Bu (2mg/kg b.i.d.) for four days followed with two days of cyclophosphamide (60mg/kg). […] Voriconazole was administered, according to the hospital clinical protocol, for the treatment of an acute fungal infection.
Samples were taken for therapeutic drug monitoring (TDM) at several time points after the first, third and fifth doses. Blood was collected into EDTA vacutainer tubes, plasma was separated by centrifugation at 1200 g and stored at -20°C until analysis of Bu and THT [18].

[5] = cited from earlier work
[6] = system: GSTA1 mRNA; test: Gene expression in patients conditioned with busulphan (gene array); assay type: in vivo, human; details: oral Bu 2mg/kg b.i.d. for 4 days
Description: as §1, §2, §3
Purified mRNA was subjected to analysis of global gene expression by using NimbleGen microarrays (Roche Diagnostics Scandinavia, Bromma, Sweden). Data were analyzed by Genespring GX (Agilent, CA, USA). Quantile normalization was used on the probe expression data generated using the Robust Multichip Average algorithm.

[7] = Busulphan kinetics in mice (alone, after PTU pretreatment, or with high-dose THT); details: for AUC / Cmax: male, C57BL/6N, mouse, plasma, ip, 25 mg/kg, mean
Description: as §4, §5, §6, §7, §8, §9

[8] = within 72 hours of administration
[9] = Group 1: mice, Bu 25mg/kg i.p. alone
[10] = Group 2: mice, Bu 25mg/kg i.p. after PTU 3mg/kg i.p. once daily for 3 days

[O-][S+]1CCCC1 [THT 1-oxide, tetrahydrothiophene 1-oxide]
share of Bu excreted in urine as this metabolite [1, 8]: 20%

CS(=O)(=O)OCCCCOS(C)(=O)=O [Bu, Busulphan]
AUC [2]: 65.5 µM·h
Cmax [2]: 16.5 µM
FMO3 mRNA after Bu conditioning versus before [3]: significant up-regulation
Bu levels versus same dose of Bu administered alone [4]: higher than expected
Bu clearance versus a patient treated with Bu alone ([4]; P<0.05): slower
decrease of Bu clearance ([5]; child with AML, after two days concomitant metronidazole): 46%
daily AUC in excess of the predicted ([5]; child with AML, concomitant metronidazole): 86%
mean Bu trough levels with concomitant metronidazole ([5]; patients undergoing HSCT): two-fold higher
GSTA1 mRNA after Bu conditioning versus before [6]: significantly up-regulated
Bu excreted in the urine as unchanged drug [1]: 2%
Bu excreted in the form of its subsequent metabolites [1, 8]: more than 70%
AUC [7, 9]: 44.3 µM·h
AUC [7, 10]: 65.3 µM·h
Cmax [7, 9]: 7.47 µM
Cmax [7, 10]: 25.5 µM
Bu plasma concentrations and Bu exposure (AUC) versus Bu alone ([7]; mice treated with FMO3 inhibitor PTU before Bu administration): significantly (P<0.05, t-test) higher
levels of Bu versus Bu alone ([7]; mice, concomitant administration of THT and Bu): higher levels

O=S1(=O)CCC(O)C1 (stereo not shown) [3-OH-sulfolane, 3-hydroxysulfolane]
share of Bu excreted in urine as this metabolite [1, 8]: 39%
